Test results from ChEMBL document CHEMBL4118098, “Discovery of DS28120313 as a potent orally active hepcidin production inhibitor: Design and optimization of novel 4,6-disubstituted indazole derivatives” (Bioorg Med Chem Lett, 2017).
Values belong to the molecule of their own block, whether it stands above or below them.

Experiments:
[1] = target: Cyclin-dependent kinase 3 (Homo sapiens) (UniProt Q00526); assay: Inhibition of CDK3 (unknown origin) at 0.19 uM relative to control
[2] = target: High affinity nerve growth factor receptor (Homo sapiens) (UniProt P04629); assay: Inhibition of TRKA (unknown origin) at 0.19 uM relative to control
High affinity nerve growth factor receptor (Homo sapiens), sequence (P04629 33-796 limits assumed): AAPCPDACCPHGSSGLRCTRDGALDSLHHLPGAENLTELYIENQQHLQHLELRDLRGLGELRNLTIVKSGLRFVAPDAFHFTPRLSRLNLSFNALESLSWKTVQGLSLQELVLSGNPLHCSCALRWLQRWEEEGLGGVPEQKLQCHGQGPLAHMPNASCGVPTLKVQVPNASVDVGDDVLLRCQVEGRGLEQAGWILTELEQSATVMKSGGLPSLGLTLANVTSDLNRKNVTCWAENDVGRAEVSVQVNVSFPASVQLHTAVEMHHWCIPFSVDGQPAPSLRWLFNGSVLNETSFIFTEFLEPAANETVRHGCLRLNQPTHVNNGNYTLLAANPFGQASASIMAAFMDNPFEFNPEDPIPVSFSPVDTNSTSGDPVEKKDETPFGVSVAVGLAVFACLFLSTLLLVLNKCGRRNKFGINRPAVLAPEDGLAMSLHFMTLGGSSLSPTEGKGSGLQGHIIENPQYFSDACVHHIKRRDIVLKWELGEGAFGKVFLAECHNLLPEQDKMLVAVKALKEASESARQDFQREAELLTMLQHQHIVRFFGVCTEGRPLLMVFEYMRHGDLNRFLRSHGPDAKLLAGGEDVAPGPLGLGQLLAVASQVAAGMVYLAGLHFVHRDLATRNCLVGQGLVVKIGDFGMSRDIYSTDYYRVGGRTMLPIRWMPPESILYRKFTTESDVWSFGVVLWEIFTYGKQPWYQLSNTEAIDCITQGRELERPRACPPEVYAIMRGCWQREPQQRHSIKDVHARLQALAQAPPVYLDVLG

[3] = tested on: Platelet-derived growth factor receptor alpha (Homo sapiens), P16234 [V561D]; assay: Inhibition of PDGFRA V561D mutant (unknown origin) at 0.19 uM relative to control
[4] = target: Serine/threonine-protein kinase Chk2 (Homo sapiens) (UniProt O96017); assay: Inhibition of CHK2 (unknown origin) at 0.19 uM relative to control
[5] = target: Cyclin-dependent kinase 9 (Homo sapiens) (UniProt P50750); assay: Inhibition of CDK9 (unknown origin) at 0.19 uM relative to control
[6] = target: Ribosomal protein S6 kinase alpha-6 (Homo sapiens) (UniProt Q9UK32); assay: Inhibition of RSK4 (unknown origin) at 0.19 uM relative to control
[7] = target: Cytoplasmic tyrosine-protein kinase BMX (Homo sapiens) (UniProt P51813); assay: Inhibition of BMX (unknown origin) at 0.19 uM relative to control
[8] = target: Casein kinase I isoform gamma-1 (Homo sapiens) (UniProt Q9HCP0); assay: Inhibition of CK1-gamma1 (unknown origin) at 0.19 uM relative to control
[9] = target: Calcium/calmodulin-dependent protein kinase type IV (Homo sapiens) (UniProt Q16566); assay: Inhibition of CAMK4 (unknown origin) at 0.19 uM relative to control
[10] = target: AMPK alpha2/beta1/gamma1 (Homo sapiens) (UniProt P54646+P54619+Q9Y478); assay: Inhibition of AMPK-alpha2/beta1/gamma1 (unknown origin) at 0.19 uM relative to control; type: protein-complex assay
[11] = target: Insulin-like growth factor 1 receptor (Homo sapiens) (UniProt P08069); assay: Inhibition of IGF1R (unknown origin) at 0.19 uM relative to control
Insulin-like growth factor 1 receptor (Homo sapiens), sequence (P08069 31-736 limits assumed): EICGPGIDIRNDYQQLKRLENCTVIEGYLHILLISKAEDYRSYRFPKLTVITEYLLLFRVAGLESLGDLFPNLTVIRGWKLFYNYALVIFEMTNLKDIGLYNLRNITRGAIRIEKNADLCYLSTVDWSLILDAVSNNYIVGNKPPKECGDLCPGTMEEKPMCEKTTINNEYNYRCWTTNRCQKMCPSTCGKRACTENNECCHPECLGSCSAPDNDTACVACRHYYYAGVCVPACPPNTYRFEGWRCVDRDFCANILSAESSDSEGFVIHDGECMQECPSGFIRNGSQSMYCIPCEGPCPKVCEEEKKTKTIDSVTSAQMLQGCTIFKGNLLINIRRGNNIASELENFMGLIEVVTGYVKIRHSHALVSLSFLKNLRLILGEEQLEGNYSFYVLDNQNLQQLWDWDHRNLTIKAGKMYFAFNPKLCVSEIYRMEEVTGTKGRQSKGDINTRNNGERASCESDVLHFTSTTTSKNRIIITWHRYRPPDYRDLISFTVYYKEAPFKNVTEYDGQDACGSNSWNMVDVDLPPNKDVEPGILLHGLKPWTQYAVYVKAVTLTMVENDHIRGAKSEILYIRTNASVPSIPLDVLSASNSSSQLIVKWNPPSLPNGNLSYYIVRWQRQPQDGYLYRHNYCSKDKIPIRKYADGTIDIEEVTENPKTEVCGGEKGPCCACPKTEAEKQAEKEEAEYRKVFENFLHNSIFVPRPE
Insulin-like growth factor 1 receptor (Homo sapiens), sequence (P08069 741-1367 limits assumed): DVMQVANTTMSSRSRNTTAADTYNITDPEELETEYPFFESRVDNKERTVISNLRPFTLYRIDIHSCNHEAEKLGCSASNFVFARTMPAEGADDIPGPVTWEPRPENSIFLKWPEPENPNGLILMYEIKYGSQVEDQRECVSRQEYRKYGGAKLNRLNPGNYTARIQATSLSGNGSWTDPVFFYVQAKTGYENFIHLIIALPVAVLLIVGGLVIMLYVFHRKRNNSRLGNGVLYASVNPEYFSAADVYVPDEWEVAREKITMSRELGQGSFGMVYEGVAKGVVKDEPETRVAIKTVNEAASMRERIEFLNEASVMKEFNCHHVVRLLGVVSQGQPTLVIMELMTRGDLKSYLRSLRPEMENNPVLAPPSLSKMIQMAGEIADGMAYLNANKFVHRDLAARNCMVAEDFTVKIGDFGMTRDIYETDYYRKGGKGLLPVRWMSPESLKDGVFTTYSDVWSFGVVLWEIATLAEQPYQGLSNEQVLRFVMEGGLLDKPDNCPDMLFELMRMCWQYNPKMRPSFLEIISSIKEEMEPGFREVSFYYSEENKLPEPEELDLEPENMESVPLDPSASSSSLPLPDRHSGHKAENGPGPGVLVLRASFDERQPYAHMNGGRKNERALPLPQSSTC

[12] = target: Serine/threonine-protein kinase Nek9 (Homo sapiens) (UniProt Q8TD19); assay: Inhibition of NEK9 (unknown origin) at 0.19 uM relative to control
[13] = target: Protein kinase C eta type (Homo sapiens) (UniProt P24723); assay: Inhibition of PKC-eta (unknown origin) at 0.19 uM relative to control
Protein kinase C eta type (Homo sapiens), sequence (P24723 whole entry): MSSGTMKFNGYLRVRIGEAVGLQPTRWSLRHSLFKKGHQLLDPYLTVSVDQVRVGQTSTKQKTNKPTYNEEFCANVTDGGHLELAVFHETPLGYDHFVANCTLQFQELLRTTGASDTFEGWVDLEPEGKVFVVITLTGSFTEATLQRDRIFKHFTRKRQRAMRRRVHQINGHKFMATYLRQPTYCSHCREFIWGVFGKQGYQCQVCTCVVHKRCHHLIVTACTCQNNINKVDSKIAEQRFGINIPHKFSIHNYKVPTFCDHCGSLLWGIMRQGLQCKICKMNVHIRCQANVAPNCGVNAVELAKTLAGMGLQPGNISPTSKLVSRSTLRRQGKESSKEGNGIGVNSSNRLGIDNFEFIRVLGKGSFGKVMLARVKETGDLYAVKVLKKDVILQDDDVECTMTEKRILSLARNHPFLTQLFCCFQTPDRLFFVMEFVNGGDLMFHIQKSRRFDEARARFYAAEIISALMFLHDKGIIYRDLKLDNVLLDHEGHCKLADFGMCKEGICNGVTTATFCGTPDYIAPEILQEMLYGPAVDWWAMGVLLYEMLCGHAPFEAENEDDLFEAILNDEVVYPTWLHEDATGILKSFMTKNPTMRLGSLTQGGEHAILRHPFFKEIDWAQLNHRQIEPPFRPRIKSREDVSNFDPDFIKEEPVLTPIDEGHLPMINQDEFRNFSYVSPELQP

[14] = target: MAP kinase-activated protein kinase 3 (Homo sapiens) (UniProt Q16644); assay: Inhibition of MAPKAPK3 (unknown origin) at 0.19 uM relative to control
MAP kinase-activated protein kinase 3 (Homo sapiens), sequence (Q16644 whole entry, looked up): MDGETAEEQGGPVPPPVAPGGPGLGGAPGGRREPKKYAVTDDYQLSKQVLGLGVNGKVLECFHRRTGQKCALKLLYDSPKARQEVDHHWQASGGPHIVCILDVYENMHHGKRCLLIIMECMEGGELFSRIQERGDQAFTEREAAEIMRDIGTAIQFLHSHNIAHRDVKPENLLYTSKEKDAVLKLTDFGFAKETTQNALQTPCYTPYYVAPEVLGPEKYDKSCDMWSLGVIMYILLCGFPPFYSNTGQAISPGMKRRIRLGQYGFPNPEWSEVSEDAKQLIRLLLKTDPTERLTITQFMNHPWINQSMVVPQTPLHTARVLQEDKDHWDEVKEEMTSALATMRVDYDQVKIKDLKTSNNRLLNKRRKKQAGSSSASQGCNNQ

[15] = target: Serine/threonine-protein kinase D2 (Homo sapiens) (UniProt Q9BZL6); assay: Inhibition of PKD2 (unknown origin) at 0.19 uM relative to control
[16] = target: Tyrosine-protein kinase receptor TYRO3 (Homo sapiens) (UniProt Q06418); assay: Inhibition of TYRO3 (unknown origin) at 0.164 uM relative to control
Tyrosine-protein kinase receptor TYRO3 (Homo sapiens), sequence (Q06418 whole entry): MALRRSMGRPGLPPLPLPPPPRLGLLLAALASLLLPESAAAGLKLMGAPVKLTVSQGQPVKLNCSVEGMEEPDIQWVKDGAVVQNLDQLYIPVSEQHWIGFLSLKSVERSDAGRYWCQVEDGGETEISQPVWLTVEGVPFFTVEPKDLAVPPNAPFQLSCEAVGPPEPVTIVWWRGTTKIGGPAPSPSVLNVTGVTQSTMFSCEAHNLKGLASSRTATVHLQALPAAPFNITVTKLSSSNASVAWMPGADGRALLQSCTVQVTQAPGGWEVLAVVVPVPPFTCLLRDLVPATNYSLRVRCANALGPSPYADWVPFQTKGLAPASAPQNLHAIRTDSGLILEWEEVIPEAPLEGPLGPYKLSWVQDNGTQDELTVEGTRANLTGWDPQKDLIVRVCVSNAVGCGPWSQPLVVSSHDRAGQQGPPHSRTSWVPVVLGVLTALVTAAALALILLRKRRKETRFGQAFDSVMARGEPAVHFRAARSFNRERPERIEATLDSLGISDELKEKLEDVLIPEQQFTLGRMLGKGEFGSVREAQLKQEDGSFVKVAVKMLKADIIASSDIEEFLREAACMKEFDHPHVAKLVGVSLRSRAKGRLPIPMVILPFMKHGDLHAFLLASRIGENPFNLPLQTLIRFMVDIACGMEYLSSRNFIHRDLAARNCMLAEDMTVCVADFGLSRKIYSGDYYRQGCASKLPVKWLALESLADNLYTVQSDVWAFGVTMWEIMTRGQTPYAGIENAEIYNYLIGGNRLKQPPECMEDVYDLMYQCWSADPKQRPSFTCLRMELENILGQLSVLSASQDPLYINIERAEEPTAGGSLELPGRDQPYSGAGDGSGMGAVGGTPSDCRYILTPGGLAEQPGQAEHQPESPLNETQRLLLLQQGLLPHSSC

[17] = target: CDK6/cyclin D3 (Homo sapiens) (UniProt P30281+Q00534); assay: Inhibition of CDK6/CyclinD3 (unknown origin) at 0.164 uM relative to control; type: protein-complex assay
[18] = target: Homeodomain-interacting protein kinase 4 (Homo sapiens) (UniProt Q8NE63); assay: Inhibition of HIPK4 (unknown origin) at 0.164 uM relative to control
[19] = target: T1, Testis-specific serine/threonine-protein kinase 1 (Homo sapiens) (UniProt Q9BXA7); assay: Inhibition of TSSK1 (unknown origin) at 0.164 uM relative to control
T1 sequence (whole entry): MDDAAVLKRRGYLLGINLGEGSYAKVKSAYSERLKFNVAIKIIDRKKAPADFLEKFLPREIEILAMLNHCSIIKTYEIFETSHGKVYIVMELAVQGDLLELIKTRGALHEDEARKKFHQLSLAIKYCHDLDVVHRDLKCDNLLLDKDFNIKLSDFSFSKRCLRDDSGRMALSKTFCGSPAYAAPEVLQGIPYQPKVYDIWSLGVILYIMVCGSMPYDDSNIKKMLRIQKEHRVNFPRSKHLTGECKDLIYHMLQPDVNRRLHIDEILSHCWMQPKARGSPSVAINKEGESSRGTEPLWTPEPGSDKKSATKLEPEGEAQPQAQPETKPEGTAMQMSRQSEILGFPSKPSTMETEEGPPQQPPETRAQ

[20] = target: MAP kinase-activated protein kinase 2 (Homo sapiens) (UniProt P49137); assay: Inhibition of MAPKAPK2 (unknown origin) at 0.164 uM relative to control
MAP kinase-activated protein kinase 2 (Homo sapiens), sequence (P49137 whole entry, looked up): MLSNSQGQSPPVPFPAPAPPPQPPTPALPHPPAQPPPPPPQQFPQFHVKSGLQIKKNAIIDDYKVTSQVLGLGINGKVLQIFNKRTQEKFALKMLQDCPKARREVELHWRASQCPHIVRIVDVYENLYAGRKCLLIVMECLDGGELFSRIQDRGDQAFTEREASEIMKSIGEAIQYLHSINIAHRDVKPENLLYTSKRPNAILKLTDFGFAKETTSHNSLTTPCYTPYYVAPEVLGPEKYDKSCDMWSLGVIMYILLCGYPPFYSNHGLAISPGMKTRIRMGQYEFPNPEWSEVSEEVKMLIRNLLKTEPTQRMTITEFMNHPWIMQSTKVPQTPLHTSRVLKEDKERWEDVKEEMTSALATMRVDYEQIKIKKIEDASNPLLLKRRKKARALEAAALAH

[21] = target: T2, CDK4/Cyclin D3 (Homo sapiens) (UniProt P11802+P30281); assay: Inhibition of CDK4/CyclinD3 (unknown origin) at 0.164 uM relative to control; type: protein-complex assay
[22] = target: Death-associated protein kinase 1 (Homo sapiens) (UniProt P53355); assay: Inhibition of DAPK1 (unknown origin) at 0.164 uM relative to control
[23] = target: Calcium/calmodulin-dependent protein kinase type II subunit alpha (Homo sapiens) (UniProt Q9UQM7); assay: Inhibition of CaMK2a (unknown origin) at 0.164 uM relative to control
[24] = target: Serine/threonine-protein kinase Chk1 (Homo sapiens) (UniProt O14757); assay: Inhibition of CHK1 (unknown origin) at 0.164 uM relative to control
Serine/threonine-protein kinase Chk1 (Homo sapiens), sequence (O14757 whole entry): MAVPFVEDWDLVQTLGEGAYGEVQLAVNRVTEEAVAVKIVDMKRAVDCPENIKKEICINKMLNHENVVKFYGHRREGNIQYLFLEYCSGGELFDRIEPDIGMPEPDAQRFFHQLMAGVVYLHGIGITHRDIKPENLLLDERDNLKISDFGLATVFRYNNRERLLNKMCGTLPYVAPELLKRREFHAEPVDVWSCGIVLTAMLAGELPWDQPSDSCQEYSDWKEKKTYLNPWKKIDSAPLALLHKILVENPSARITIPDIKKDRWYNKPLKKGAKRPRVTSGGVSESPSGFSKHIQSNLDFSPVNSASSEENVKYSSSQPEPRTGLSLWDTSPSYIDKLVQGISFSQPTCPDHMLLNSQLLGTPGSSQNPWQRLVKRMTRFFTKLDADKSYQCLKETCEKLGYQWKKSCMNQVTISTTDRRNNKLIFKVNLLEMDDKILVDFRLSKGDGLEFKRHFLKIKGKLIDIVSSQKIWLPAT

[25] = target: BDNF/NT-3 growth factors receptor (Homo sapiens) (UniProt Q16620); assay: Inhibition of NTRK2 (unknown origin) at 0.164 uM relative to control
[26] = target: Serine/threonine-protein kinase Nek6 (Homo sapiens) (UniProt Q9HC98); assay: Inhibition of NEK6 (unknown origin) at 0.164 uM relative to control
[27] = target: Misshapen-like kinase 1 (Homo sapiens) (UniProt Q8N4C8); assay: Inhibition of MINK (unknown origin) at 0.164 uM relative to control
[28] = tested on: Fibroblast growth factor receptor 1 (Homo sapiens), P11362 [V561M]; assay: Inhibition of FGFR1 V561M mutant (unknown origin) at 0.164 uM relative to control
[29] = target: Calcium/calmodulin-dependent protein kinase type II subunit beta (Homo sapiens) (UniProt Q13554); assay: Inhibition of CaMK2-beta (unknown origin) at 0.164 uM relative to control
[30] = target: Tyrosine-protein kinase JAK3 (Homo sapiens) (UniProt P52333); assay: Inhibition of JAK3 (unknown origin) at 0.164 uM relative to control
Homo sapiens = organism: Homo sapiens; assay: Inhibition of PKA (unknown origin) at 0.45 uM relative to control
[31] = target: PAS domain-containing serine/threonine-protein kinase (Homo sapiens) (UniProt Q96RG2); assay: Inhibition of PASK (unknown origin) at 0.45 uM relative to control
[32] = target: T2, CDK4/Cyclin D3 (Homo sapiens); assay: Inhibition of CDK4/CyclinD3 (unknown origin) at 0.45 uM relative to control; type: protein-complex assay
[33] = target: T1, Testis-specific serine/threonine-protein kinase 1 (Homo sapiens); assay: Inhibition of TSSK1 (unknown origin) at 0.45 uM relative to control

inhibition [1]: 1.7%
inhibition [2]: 37.7%
inhibition [3]: 63.3%
inhibition [4]: 3%
inhibition [5]: -1%
inhibition [6]: -2%
inhibition [7]: -3.7%
inhibition [8]: -0.3%
inhibition [9]: 1.3%
inhibition [10]: 13.7%
inhibition [11]: 5%
inhibition [13]: 2.7%
inhibition [14]: -1.7%
inhibition [15]: 9%
SMILES: Cc1[nH]nc(C2CC2)c1-c1ccc2c(-c3ccc(N4CCN(C)CC4)nc3)n[nH]c2c1
inhibition [12]: -3%

inhibition [16]: 7.7%
inhibition [17]: 2.7%
inhibition [18]: -4%
inhibition [19]: -4.3%
inhibition [20]: 7%
inhibition [21]: -0.7%
inhibition [23]: -0.3%
inhibition [24]: 5.3%
inhibition [25]: 4%
inhibition [26]: 4.3%
inhibition [27]: 7%
inhibition [28]: 4.7%
inhibition [29]: 28%
inhibition [30]: 0%
SMILES: COC(=O)Nc1cc(-c2c(C3CC3)n[nH]c2C)cc2[nH]ncc12
inhibition [22]: -3.7%

inhibition (Homo sapiens): 3%
inhibition [31]: -2%
inhibition [32]: -8.3%
inhibition [33]: -1%
SMILES: Cc1n[nH]c(C)c1-c1ccc2c(NC(=O)c3ccc(N4CCN(C)CC4)cc3)n[nH]c2c1
